System: brain of rats subjected to severe traumatic brain injury (sTBI)
Experiment: Ingenuity pathway analysis of differentially regulated genes after sTBI (canonical pathways, diseases and molecular functions; Example 4)
Parameters: species or system rat
Conditions: 2 days after TBI
Procedure: Pathway analysis of the differentially regulated genes was carried out using the Ingenuity pathway analysis package. The analysis was performed with special reference to pathways and molecular processes and diseases associated with neurodegenerative disease, including dementia, Alzheimer's disease, ALS, TBI and stroke, and with scarring and fibrosis, including glaucoma and normal pressure hydrocephalus (NPH) after subarachnoid haemorrhage.

[1] = TBI + 5 mg/kg LMW-DS relative to control

sodium salt of dextran sulfate [LMW-DS]
Apoptosis (disease/function), z score (TBI + 5 mg/kg LMW-DS): 0.601 | Behavior (disease/function), z score (TBI + 5 mg/kg LMW-DS): −2.009 | Carcinoma (disease/function), z score (TBI + 5 mg/kg LMW-DS): −2.071 | Cell death (disease/function), z score (TBI + 5 mg/kg LMW-DS): 0.051 | Cell death of antigen presenting cells (disease/function), z score (TBI + 5 mg/kg LMW-DS): −0.62 | Cell death of immune cells (disease/function), z score (TBI + 5 mg/kg LMW-DS): −1 | Cell death of tumor cell lines (disease/function), z score (TBI + 5 mg/kg LMW-DS): −1.947 | Cell movement (disease/function), z score (TBI + 5 mg/kg LMW-DS): −3.723 | Cell movement of tumor cell lines (disease/function), z score (TBI + 5 mg/kg LMW-DS): −2.078 | Cell proliferation of leukocyte cell lines (disease/function), z score (TBI + 5 mg/kg LMW-DS): −2.754 | Cellular homeostasis (disease/function), z score (TBI + 5 mg/kg LMW-DS): −3.19 | Chemotaxis (disease/function), z score (TBI + 5 mg/kg LMW-DS): −3.642 | Concentration of prostaglandin (disease/function), z score (TBI + 5 mg/kg LMW-DS): −0.911 | Development of vasculature (disease/function), z score (TBI + 5 mg/kg LMW-DS): −1.534 | Digestive organ tumor (disease/function), z score (TBI + 5 mg/kg LMW-DS): −1.149 | Digestive system cancer (disease/function), z score (TBI + 5 mg/kg LMW-DS): −2.221 | Edema (disease/function), z score (TBI + 5 mg/kg LMW-DS): 3.386 | Epithelial neoplasm (disease/function), z score (TBI + 5 mg/kg LMW-DS): −1.393 | Extracranial solid tumor (disease/function), z score (TBI + 5 mg/kg LMW-DS): −0.992 | Feeding (disease/function), z score (TBI + 5 mg/kg LMW-DS): −0.895 | Growth of tumor (disease/function), z score (TBI + 5 mg/kg LMW-DS): −1.233 | Hematologic cancer (disease/function), z score (TBI + 5 mg/kg LMW-DS): −1.067 | Incidence of tumor (disease/function), z score (TBI + 5 mg/kg LMW-DS): −0.731 | Leukocyte migration (disease/function), z score (TBI + 5 mg/kg LMW-DS): −2.163 | Leukopoiesis (disease/function), z score (TBI + 5 mg/kg LMW-DS): −3.549 | Locomotion (disease/function), z score (TBI + 5 mg/kg LMW-DS): −0.039 | Lymphocyte homeostasis (disease/function), z score (TBI + 5 mg/kg LMW-DS): −2.94 | Lymphocytic cancer (disease/function), z score (TBI + 5 mg/kg LMW-DS): −0.48 | Lymphocytic neoplasm (disease/function), z score (TBI + 5 mg/kg LMW-DS): −0.48 | Lymphopoiesis (disease/function), z score (TBI + 5 mg/kg LMW-DS): −3.105 | Lymphoproliferative disorder (disease/function), z score (TBI + 5 mg/kg LMW-DS): −0.48 | Malignant solid tumor (disease/function), z score (TBI + 5 mg/kg LMW-DS): −1.492 | Metabolism of hormone (disease/function), z score (TBI + 5 mg/kg LMW-DS): −1.632 | Migration of cells (disease/function), z score (TBI + 5 mg/kg LMW-DS): −3.087 | NF-κB Signaling canonical pathway, effect (TBI + 5 mg/kg LMW-DS): Inhibited | Necrosis (disease/function), z score (TBI + 5 mg/kg LMW-DS): −1.503 | Neoplasia of leukocytes (disease/function), z score (TBI + 5 mg/kg LMW-DS): −0.48 | Non-melanoma solid tumor (disease/function), z score (TBI + 5 mg/kg LMW-DS): −1.249 | Osteoarthritis Pathway canonical pathway, effect (TBI + 5 mg/kg LMW-DS): Inhibited | Proliferation of hematopoietic progenitor cells (disease/function), z score (TBI + 5 mg/kg LMW-DS): −2.951 | Quantity of cells (disease/function), z score (TBI + 5 mg/kg LMW-DS): −3.092 | Quantity of epithelial tissue (disease/function), z score (TBI + 5 mg/kg LMW-DS): −0.028 | Quantity of neuroglia (disease/function), z score (TBI + 5 mg/kg LMW-DS): −1.446 | Resorption of bone (disease/function), z score (TBI + 5 mg/kg LMW-DS): −0.478 | Role of NFAT in Cardiac Hypertrophy canonical pathway, effect (TBI + 5 mg/kg LMW-DS): Inhibited | Secretion of molecule (disease/function), z score (TBI + 5 mg/kg LMW-DS): 1.634 | Size of body (disease/function), z score (TBI + 5 mg/kg LMW-DS): −4.771 | Synthesis of hormone (disease/function), z score (TBI + 5 mg/kg LMW-DS): −1.632 | Transport of molecule (disease/function), z score (TBI + 5 mg/kg LMW-DS): 0.248 | Vasculogenesis (disease/function), z score (TBI + 5 mg/kg LMW-DS): −2.274 | Adrenomedullin Signaling pathway canonical pathway, z score [1]: −2.236 | NF-κB Signaling canonical pathway, z score [1]: −2 | Osteoarthritis Pathway canonical pathway, z score [1]: −2.646 | Role of NFAT in Cardiac Hypertrophy canonical pathway, z score [1]: −1.633 | Apoptosis (disease/function), z score (TBI + 15 mg/kg LMW-DS): −0.502 | Apoptosis of tumor cell lines (disease/function), z score (TBI + 15 mg/kg LMW-DS): 0.09 | Behavior (disease/function), z score (TBI + 15 mg/kg LMW-DS): −0.139 | Cell death (disease/function), z score (TBI + 15 mg/kg LMW-DS): −0.141 | Necrosis (disease/function), z score (TBI + 15 mg/kg LMW-DS): −0.477 | Quantity of blood cells (disease/function), z score (TBI + 15 mg/kg LMW-DS): −0.34 | Quantity of cells (disease/function), z score (TBI + 15 mg/kg LMW-DS): −0.797 | Quantity of lymphocytes (disease/function), z score (TBI + 15 mg/kg LMW-DS): −0.943 | Transcription of RNA (disease/function), z score (TBI + 15 mg/kg LMW-DS): −2.488 | Effect on diseases or functions annotation: Abdominal cancer (TBI + 1 mg/kg LMW-DS): Inhibited | Effect on diseases or functions annotation: Abdominal carcinoma (TBI + 1 mg/kg LMW-DS): Inhibited | Effect on diseases or functions annotation: Abdominal neoplasm (TBI + 1 mg/kg LMW-DS): Inhibited | Effect on diseases or functions annotation: Activation of blood cells (TBI + 1 mg/kg LMW-DS): Activated | Effect on diseases or functions annotation: Activation of cells (TBI + 1 mg/kg LMW-DS): Activated | Effect on diseases or functions annotation: Activation of leukocytes (TBI + 1 mg/kg LMW-DS): Activated | Effect on diseases or functions annotation: Activation of lymphocytes (TBI + 1 mg/kg LMW-DS): Inhibited | Effect on diseases or functions annotation: Adhesion of tumor cell lines (TBI + 1 mg/kg LMW-DS): Activated | Effect on diseases or functions annotation: Apoptosis (TBI + 1 mg/kg LMW-DS): Inhibited
